Reference: article PMC10500001, “Dual hypoxia-responsive supramolecular complex for cancer target therapy” (Nature Communications, 2023)
Values joined by “and” are separate entries in the source; they are usually repeats but may differ in a detail not shown here. Equal values may be shown once.

Key:
[1] = tested on: PANC1 cells; experiment: CCK8 cytotoxicity of SAC5A and SBE-β-CD, 24 h; type: cell-based, human; conditions: for cell viability: 24 h, in % (unit assumed)
Method: PANC1 cells (5 × 10^3 cells/well) were seeded into the 96-well plate and incubated overnight. They were treated with SAC5A or SBE-β-CD of different concentrations and incubated for 24 h under normoxic or hypoxic conditions, respectively. […] After a 6 h incubation under normoxic conditions, the culture medium was exchanged with fresh medium. Subsequently, the cells were incubated at 37 °C for 18 h under either normoxic or hypoxic conditions, respectively. And then, the culture medium was replaced with fresh medium and 10 μL cell counting kit-8 solution (C6005, US Everbright, Jiangsu, China). Following a 4 h incubation, the optical density was assessed at 450 nm employing a microplate reader.
Supplementary Figure 19. The cytotoxicity of SAC5A and SBE-β-CD. (a) Cell viability
Data are presented as mean ± SD (n = 6 biologically independent samples).

[2] = Competitive fluorescence titration of RhB@SAC5A with NMP-BE; conditions: binding of SAC5A to NMP-BE, 1:1 competitive binding, PBS 10 mM pH 7.4, 25 °C
Method: Data are presented as mean ± SD (n = 3 biologically independent samples). Source data are provided as a Source Data file.
The complexation of SAC5A with NMP-BE was measured by competitive fluorescence titrations. A mixed solution containing known amounts of reporter dye (RhB), host (SAC5A) and competitive guest (NMP-BE) was injected into 2.50 mL RhB and SAC5A solution in a quartz cuvette. Care was taken to keep the concentrations of dye and SAC5A constant in the course of titrations. The fluorescence intensity was measured (λex = 554 nm for RhB) before the first addition and after every addition. The association constant was obtained by fitting fluorescence intensity (λem = 575 nm for RhB) according to a 1:1 competitive binding model. The fitting of data from direct titrations and competitive titrations was performed in a nonlinear manner, and the fitting modules were downloaded from the website of Prof. Nau’s group (http://www.jacobs-university.de/ses/wnau) under the column of “Fitting Functions”.

[3] = tested on: PANC1 tumor-bearing BALB/c nude mice; experiment: In vivo anticancer efficacy study of NMP-BE@SAC5A; design: species or system mouse; conditions: for Tumor volume: SAC5A 15, NMP-BE 5, NMP-BE@SAC5A 20 mg/kg iv
Excerpt: After the tumor grows to a suitable size, the tumor was divided into small pieces and then subcutaneously inoculated into the right flank of other mice. After 10 d of inoculation, when the tumor volumes of mice were around 50 mm^3, PANC1-bearing BALB/c nude mice were separated randomly with a total of six mice in each group. […] On day 18 after injection, the mice were euthanized, and their tumors were collected. […] In addition, we also investigated the anticancer effects of NMP-BE@SBE-β-CD.
(§1) Tumors were measured as mentioned above.

[4] = tested on: PANC1 tumor-bearing BALB/c nude mice; experiment: In vivo anticancer effects of NMP and SAC5A; design: species or system mouse; conditions: for Tumor volume: Supplementary Fig.22a
Method: Supplementary Figure 22. […] (a) Average […]
presented as mean ± SD (n = 6 mice per group). P values are calculated by two-way […]
Data are presented as mean ± SD ( n = 6 biologically independent samples ). P values are calculated by one-way ANOVA with Turkey’s multiple comparisons test: ns: no […]
Note: (b) During the experiment, the tumor images were taken of PBS vs NMP, PBS vs SAC5A groups respectively. As the PBS group consisted of the same tumors, the tumor

[5] = tested on: PANC1 tumor tissues; experiment: Histology of dissected tumors (H&E, TUNEL, Ki67); conditions: mouse, in vivo
Method: The hematoxylin-eosin (H&E) staining and terminal deoxynucleotidyl transferase dUTP nick end labeling (TUNEL) tests were next carried out to evaluate the cell pathology changes and apoptosis in the tumors of every groups. […] Meanwhile, we verified the effects of different treatments on cancer cell proliferation by immunofluorescence Ki67 staining.
as §1

[6] = Biosafety: blood routine and blood chemistry assays
Method: Toxic effects are a barrier to overcome before efficient deliverability can be achieved with BE.
For in vivo anticancer efficacy study, 1 × 10^6 PANC1 cells were injected subcutaneously into the right flanks of the BALB/c nude mice. To investigate the anticancer effects of SBE-β-CD@NMP-BE, the mice with tumor volumes at around 50 mm^3 were randomized into four groups (6 mice per group) and injected intravenously via tails with 200 μL of PBS, NMP-BE (5 mg/kg), SBE-β-CD (15 mg/kg) and NMP-BE@SBE-β-CD (20 mg/kg) every two days for 8 times and the tumor volumes for 14 days were continuously monitored. Tumor were measured by using a Vernier calipers and the volume (V) was calculated to be V = d^2 × D/2, where d is the shortest and the D is longest diameter of the tumor in mm respectively. […] Tumors were measured as mentioned above. To assess potential toxicities, mice were monitored for weight loss. Tumors were collected for H&E analysis and immunofluorescence staining. Major organs including heart, liver, spleen, lung, and kidney, were collected and stained with H&E for histopathologic analysis. To evaluate biosafety of SAC5A, blood samples were collected for blood chemistry assay and blood routine assay.

O=S(=O)(O)c1ccc(/N=N/c2cc3c(O)c(c2)Cc2cc(/N=N/c4ccc(S(=O)(=O)O)cc4)cc(c2O)Cc2cc(/N=N/c4ccc(S(=O)(=O)O)cc4)cc(c2O)Cc2cc(/N=N/c4ccc(S(=O)(=O)O)cc4)cc(c2O)Cc2cc(/N=N/c4ccc(S(=O)(=O)O)cc4)cc(c2O)C3)cc1 [SAC5A, sulfonated azocalix[5]arene]
cell viability ([1]; PANC1, Hypoxia, 10 μM): 101.91 and 106.97 and 106.87 and 103.95 and 95.76 and 94.38
cell viability ([1]; PANC1, Hypoxia, 20 μM): 98.99 and 105.90 and 107.51 and 100.07 and 96.78 and 98.26
cell viability ([1]; PANC1, Hypoxia, 40 μM): 96.62 and 103.74 and 107.19 and 94.57 and 95.43 and 98.62
cell viability ([1]; PANC1, Hypoxia, 100 μM): 89.44 and 102.24 and 97.97 and 93.46 and 97.47 and 88.44
cell viability ([1]; PANC1, Hypoxia, 200 μM): 96.47 and 99.73 and 95.34 and 92.70 and 90.07 and 95.59
cell viability ([1]; PANC1, Hypoxia, 400 μM): 98.35 and 96.22 and 97.85 and 103.12 and 92.08 and 92.95
cell viability ([1]; PANC1, Normoxia, 10 μM): 94.32 and 96.61 and 94.68 and 98.32 and 94.21 and 96.48
cell viability ([1]; PANC1, Normoxia, 20 μM): 92.78 and 88.19 and 94.36 and 97.85 and 97.21 and 107.50
cell viability ([1]; PANC1, Normoxia, 40 μM): 88.98 and 89.46 and 94.68 and 94.21 and 93.73 and 87.87
cell viability ([1]; PANC1, Normoxia, 100 μM): 86.69 and 92.80 and 86.44 and 99.65 and 91.72 and 99.02
cell viability ([1]; PANC1, Normoxia, 200 μM): 96.38 and 94.98 and 93.23 and 105.44 and 89.58 and 94.49
cell viability ([1]; PANC1, Normoxia, 400 μM): 90.21 and 94.16 and 91.97 and 97.63 and 95.37 and 92.10
cytotoxicities ([1]; PANC1 cells, 10 μM to 0.40 mM, normoxic and hypoxic): negligible
Ka [2]: (5.1 ± 0.5) × 10^6 M^−1
Mice weight ([3]; Day 0, single mouse): 18.5 g and 17.7 g and 16.0 g and 18.0 g and 17.5 g and 16.6 g
Tumor volume ([3]; Day 0, single mouse): 39.34 mm3 and 42.10 mm3 and 36.90 mm3 and 42.16 mm3 and 42.33 mm3 and 56.35 mm3
Mice weight ([3]; Day 2, single mouse): 14.6 g and 16.5 g and 17.5 g and 17.9 g and 18.5 g and 17.6 g
Tumor volume ([3]; Day 2, single mouse): 46.70 mm3 and 75.90 mm3 and 48.08 mm3 and 55.90 mm3 and 59.70 mm3 and 76.08 mm3
Tumor volume ([3]; Day 4, single mouse): 55.83 mm3 and 118.84 mm3 and 75.42 mm3 and 64.80 mm3 and 72.81 mm3 and 104.25 mm3
Mice weight ([3]; Day 6, single mouse): 16.3 g and 16.8 g and 17.8 g and 19.4 g and 19.1 g
Tumor volume ([3]; Day 6, single mouse): 73.60 mm3 and 175.66 mm3 and 110.64 mm3 and 99.97 mm3 and 116.56 mm3 and 152.05 mm3
Mice weight ([3]; Day 8, single mouse): 16.1 g and 19.1 g and 16.0 g and 17.6 g and 17.1 g and 18.7 g
Tumor volume ([3]; Day 8, single mouse): 97.53 mm3 and 181.96 mm3 and 126.04 mm3 and 134.13 mm3 and 98.89 mm3 and 192.89 mm3
Mice weight ([3]; Day 10, single mouse): 15.8 g and 18.5 g and 15.6 g and 17.5 g and 16.4 g and 18.7 g
Tumor volume ([3]; Day 10, single mouse): 142.07 mm3 and 265.92 mm3 and 173.37 mm3 and 226.57 mm3 and 159.78 mm3 and 251.75 mm3
Mice weight ([3]; Day 12, single mouse): 16.5 g and 19.0 g and 16.2 g and 18.3 g and 16.3 g and 18.5 g
Tumor volume ([3]; Day 12, single mouse): 165.62 mm3 and 298.12 mm3 and 264.30 mm3 and 338.22 mm3 and 196.07 mm3 and 282.53 mm3
Mice weight ([3]; Day 14, single mouse): 16.0 g and 18.0 g and 16.1 g and 18.7 g and 16.4 g and 16.2 g
Tumor volume ([3]; Day 14, single mouse): 268.77 mm3 and 498.25 mm3 and 328.38 mm3 and 404.85 mm3 and 346.37 mm3 and 404.41 mm3
Mice weight ([3]; Day 16, single mouse): 16.6 g and 18.4 g and 19.3 g and 16.3 g and 19.7 g
Tumor volume ([3]; Day 16, single mouse): 387.44 mm3 and 789.47 mm3 and 472.22 mm3 and 693.97 mm3 and 504.38 mm3 and 616.16 mm3
Mice weight ([3]; Day 18, single mouse): 16.3 g and 17.8 g and 17.5 g and 16.2 g and 19.7 g
Tumor volume ([3]; Day 18, single mouse): 532.86 mm3 and 970.26 mm3 and 525.48 mm3 and 748.96 mm3 and 671.75 mm3 and 704.93 mm3
anticancer effect ([3]; PANC1-bearing BALB/c nude mice, iv every other day, 18 days): no anticancer effect
Tumor weight ([3]; day mice were sacrificed (day 18), single mouse): 287.7 mg and 279.3 mg and 561.1 mg and 306.5 mg and 287.3 mg and 306.9 mg
Tumor volume ([4]; day 0, individual mice (n=6)): 39.34 mm3 and 42.10 mm3 and 36.90 mm3 and 42.16 mm3
Tumor volume ([4]; day 2, individual mice (n=6)): 46.70 mm3 and 75.90 mm3 and 48.08 mm3 and 55.90 mm3
Tumor volume ([4]; day 4, individual mice (n=6)): 55.83 mm3 and 118.84 mm3 and 75.42 mm3 and 64.80 mm3
Tumor volume ([4]; day 6, individual mice (n=6)): 73.60 mm3 and 175.66 mm3 and 110.64 mm3 and 99.97 mm3
Tumor volume ([4]; day 8, individual mice (n=6)): 97.53 mm3 and 181.96 mm3 and 126.04 mm3 and 134.13 mm3
Tumor volume ([4]; day 10, individual mice (n=6)): 142.07 mm3 and 265.92 mm3 and 173.37 mm3 and 226.57 mm3
Tumor volume ([4]; day 12, individual mice (n=6)): 165.62 mm3 and 298.12 mm3 and 264.30 mm3 and 338.22 mm3
Tumor volume ([4]; day 14, individual mice (n=6)): 268.77 mm3 and 498.25 mm3 and 328.38 mm3 and 404.85 mm3
Tumor volume ([4]; day 16, individual mice (n=6)): 387.44 mm3 and 789.47 mm3 and 472.22 mm3 and 693.97 mm3
Tumor volume ([4]; day 18, individual mice (n=6)): 532.86 mm3 and 970.26 mm3 and 525.48 mm3 and 748.96 mm3
Tumor weight ([4]; individual mice (n=6), Supplementary Fig.22c): 306.9 mg and 287.7 mg and 279.3 mg and 561.1 mg and 306.5 mg and 287.3 mg
TUNEL apoptosis in tumors [5]: negligible apoptosis
ALP ([6]; blood chemistry, individual mice 1-5, Fig.6h): 192.3 U/L and 155.8 U/L and 154.8 U/L and 192.1 U/L and 150.9 U/L
ALT ([6]; blood chemistry, individual mice 1-5, Fig.6i): 40 U/L and 44.1 U/L and 53.2 U/L and 59.2 U/L and 46 U/L
AST ([6]; blood chemistry, individual mice 1-5, Fig.6j): 141.2 U/L and 161.4 U/L and 172.2 U/L and 182.6 U/L and 148.2 U/L
CRE ([6]; blood chemistry, individual mice 1-5, Fig.6k): 141.2 µmol/L and 161.4 µmol/L and 172.2 µmol/L and 182.6 µmol/L and 148.2 µmol/L
BUN ([6]; blood chemistry, individual mice 1-5, Fig.6l): 8.3 mmol/L and 8.7 mmol/L and 6.3 mmol/L
RBC ([6]; blood routine, individual mice 1-5, Fig.6a): 10.0 1012/L and 9.2 1012/L and 9.1 1012/L and 11.1 1012/L and 11.2 1012/L
MCHC ([6]; blood routine, individual mice 1-5, Fig.6b): 305 g/L and 300 g/L and 301 g/L and 299 g/L and 308 g/L
HCT ([6]; blood routine, individual mice 1-5, Fig.6c): 51.8% and 49.2% and 51% and 53.8% and 50.9%
MCV ([6]; blood routine, individual mice 1-5, Fig.6d): 48.4 fL and 48.1 fL and 48.2 fL and 48.5 fL and 49.1 fL
PLT ([6]; blood routine, individual mice 1-5, Fig.6e): 11.4 1011/L and 11.8 1011/L and 10.7 1011/L and 11.5 1011/L and 12.0 1011/L
RDW ([6]; blood routine, individual mice 1-5, Fig.6f): 14.3% and 14.9% and 13.6% and 13.3%
MPV ([6]; blood routine, individual mice 1-5, Fig.6g): 5.3 fL and 5.4 fL and 6 fL and 5.5 fL
RBC, MCHC, HCT, MCV, PLT, RDW, MPV, ALP, ALT, AST, CRE, BUN levels versus PBS group ([6]; one-way ANOVA): no significance
RBC, MCHC, HCT, MCV, PLT, RDW, MPV values ([6]; treated mice): small alteration
